Literature values as cited in patent publication US20240408573A1, “ACIDIC GAS ADSORBENT AND ACIDIC GAS ADSORPTION DEVICE” (NITTO DENKO CORPORATION, priority 2021, published 2024).

Key:
[1] = safety index in terms of handling
[2] = safety index in terms of handling; remark: listed apart in the source
[3] = system: rabbits
[4] = safety index in terms of handling; remark: listed apart in the source

NCCNCCNCCN [TETA, triethylenetetramine]
Fire Service Act [1]: Hazardous material | Poisonous and Deleterious Substances Control Act [2]: Deleterious | Skin irritation test (rabbit) [3]: Strong irritant | Mutagenicity test (Ames test) [4]: Positive
